Measurements as given in patent publication US7579488B2 (Eli Lilly and Company, priority 2003, dated 2009).
pEC50, pIC50: −log10 of the molar value. Several values for one entry are separate records, joined by “and”; a condition that tells them apart may be missing. Equal values may be shown once. Read-outs that look alike come from different tables or passages of the source.

Columns and labels:
rat osteocalcin promoter = assay: OCN (osteocalcin) promoter assay; type: cell-based; conditions: RG-15 (ROS 17/2.8) cells
Description: 3. The OCN (Osteocalcin) Promoter Assay
The OCN Promoter Assay is an indicator and marker for osteoporosis. […] Preferred assay results are less than 50 nM.
(3) Materials and Method for The OCN Promoter Assay:
The activation of osteocalcin by VDR ligands was evaluated in a rat osteoblast-like cell line RG-15 (ROS 17/2.8) stably expressing rat osteocalcin promoter fused with luciferase reporter gene. […] Confluent RG-15 cells maintained in DMEM/F-12 medium (3:1) containing 5% FBS, 300 μg/ml G418 and at 37° C. under 5% CO2/95% air atmosphere were trypsinized (0.25% trypsin) and plated into white opaque 96-well cell culture plates (25000 cells/well). After 24 hr, cells (in DMEM/F-12 medium+2% FBS) were treated with various concentrations of compounds, dissolved in DMSO. The final DMSO concentration remained at 0.01% (v/v). After 48 hr treatment, the medium was removed, cells were lysed with 50 μl of lysis buffer (From Luciferase reporter assay system, Roche Diagnostics, Indianapolis, Ind.) and assayed for luciferase activity using the Luciferase Reporter Gene Assay kit from Boehringer Mannheim as per manufacturer's specifications.

KERtr cells = assay: Keratinocyte proliferation assay; type: cell-based; conditions: Homo sapiens, read-out: Kera. Prolif. IC50
Description: 5. The Keratinocyte Proliferation Assay
This Assay is indicative for the treatment of psoriasis.
(5) The Keratinocyte Proliferation Assay:
KERtr cells (Human skin keratinocyte transformed with a retrovirus vector, obtained from ATCC) were plated in 96-well flat-bottomed plates (3000 cells/well) in 100 μl keratinocyte serum free medium supplemented with bovine pituitary extract in the absence of EGF (Life Technologies, Rockville, Md.) and incubated at 37° C. for two days. The cells were treated with various concentrations of VDR ligands (ten-fold serial dilution from 10,000 nM to 0.1 nM in triplicate), dissolved in 100 μl keratinocyte serum free medium supplemented with bovine pituitary extract in the absence of EGF and incubated at 37° C. for 72 hr. […] Potency values (IC50) values were determined as the concentration (nM) of compound that elicited a half-maximal response.

female DBF mice = assay: Mouse hypercalcemia assay; conditions: oral gavage for 6 days
IL-10 = IL-10 induction assay; type: cell-based; conditions: Homo sapiens, PBMC
Description: 6. The IL-10 Induction Assay
This is an in vitro efficacy assay for psoriasis, abscess and adhesion. Psoriasis involves both keratinocytes and immune cells. IL-10 is a unique cytokine because it is anti-inflammatory and immunosuppressive. This assay tells us whether a VDRM is able to function as an agonist in PBMCs ([…]) or not.
(6) Materials and Method for Human IL-10 Induction Assay:
Isolation of Peripheral Blood Mononuclear Cells (PBMCs):
B. Prepare sterile tubes with ficol.
C. Add diluted blood to tubes.
E. Discard the top layer and collect the cells from middle layer.
F. Divide all cells into four tubes and add media.
H. Aspirate off media and resuspend.
J. Centrifuge. at 1200 rpm for 10 minutes.
M. Dissolve PHA in water.
N. Plate TPA/PHA treated PBMCs in well plates.
Sample Collection and Assay:
S. Remove all the cells by centrifugation and assay the supernatant for IL-10 by immunoassay.
1) T. Perform […] using anti-human IL-10 antibody coated beads, as described by the manufacturer (Linco Research Inc., St. Charles, Mo.).

VDR = target: T1, VDR (Homo sapiens, UniProt P11473); assay: VDR CTF (Caco-2 cell co-transfection) assay; type: cell-based; conditions: Caco-2 cells, pGal4-VDR-LBD co-transfection, luciferase; several values separated by /
T1 construct: the receptor expression vector pGal4-VDR-LBD (10 ng); expressed in transfected cells; host or cells: Caco-2 cells
T1 sequence (P11473 127-423 limits assumed): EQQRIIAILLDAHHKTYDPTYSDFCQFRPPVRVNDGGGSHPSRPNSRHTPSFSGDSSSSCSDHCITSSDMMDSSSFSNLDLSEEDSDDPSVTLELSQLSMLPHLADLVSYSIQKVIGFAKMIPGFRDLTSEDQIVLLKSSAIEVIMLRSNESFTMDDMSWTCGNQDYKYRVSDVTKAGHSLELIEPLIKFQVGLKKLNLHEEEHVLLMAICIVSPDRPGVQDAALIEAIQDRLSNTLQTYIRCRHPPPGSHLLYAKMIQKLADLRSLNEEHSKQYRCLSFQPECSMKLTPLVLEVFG
Description: 2. The Caco-2 Cell Co-Transfection Assay:
The Caco-2 cell assay is an indicator for the undesirable condition of hypercalcemia. This co-transfection assay is a surrogate assay for in vivo calcemic activity of VDR ligands. […] Preferred assay results are greater than 1000 nM.
(2) Materials and Method for the Caco-2 Cell Assay:
Caco-2 cells, grown in phenol red free, DMEM (Invitrogen, Carlsbad, Calif.) containing 10% charcoal-stripped FCS (Hyclone, Logan, Utah), were transfected with Fugene 6 reagent (Roche Diagnostics, Indianapolis, Ind.). Cells (5000/well) were plated 18 h before transfection in a 96 well plate. The Cells were transfected with Gal4-responsive reporter pFRLuc (150 ng, Stratagene, La Jolla Calif.) and the receptor expression vector pGal4-VDR-LBD (10 ng), along with Fugene 6 reagent (0.2 μl/well). The DNA-Fugene complex was formed by incubating the mixture for 30 min at room temperature. The cells were transfected in triplicate for 5 h, and treated with various concentrations of VDR ligands (form 0.01 nM to 10,000 nM concentration range) 18 h post-transfection. The luciferase activity was quantified using Steady-Glo reagent kit (Promega, Madison, Wis.) as per manufacturer's specifications.

RXR-VDR heterodimer = target: T2, RXR-VDR heterodimer (Homo sapiens, UniProt P11473); assay: RXR-VDR heterodimerization assay (SaOS-2 cells); type: cell-based; conditions: Gal4-RXR-DEF/VP16-VDR-LBD luciferase reporter, several values in a cell separated by /
T2 construct: Add the Gal4-RXR-DEF and VP16-VDR-LBD; expressed in transfected cells; host or cells: SaOS-2 cells
T2 sequence (P11473 127-423 limits assumed): T1 sequence (P11473 127-423 limits assumed)
T2 sequence (P19793 201-462 partner limits assumed): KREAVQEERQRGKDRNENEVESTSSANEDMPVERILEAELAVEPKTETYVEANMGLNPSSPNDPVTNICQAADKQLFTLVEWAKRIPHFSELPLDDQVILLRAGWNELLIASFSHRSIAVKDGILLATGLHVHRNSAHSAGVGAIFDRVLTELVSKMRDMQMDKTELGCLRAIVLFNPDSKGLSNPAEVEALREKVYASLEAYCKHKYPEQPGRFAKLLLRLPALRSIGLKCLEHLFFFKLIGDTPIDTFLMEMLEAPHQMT
Description: 1. The RXR-VDR Heterodimer Assay:
This assay provides the VDR activity of a test compound.
(1) Materials and Method for RXR-VDR Heterodimerization Assay:
Luciferase Assay Reagent: • Use Steady-Glo Luciferase Reagent from Promega (Cat #E2550) Consists of: a. E2533 Assay Substrate, lyopholized product and b. E2543 Assay Buffer. • Thaw at room temperature • Store Cell Harvesting Aspirate media from culture flask, rinse cells with HBSS and aspirate. Add trypsin and incubate. When cells appear detached, resuspend cells in growth media. Transfer into a new flask with fresh growth media for passaging the cells. Plate well plates and two extra plates A. Cell Count Mix the cell suspension using pipette Use Hematocytometer to count the cells Load cell suspension onto the hemocytometer chamber Count cells. […] In sterile flask add cell suspension to plating media. Mix. Add cells/well. Place the cells in the incubator. Cells should be about 75% confluent prior to transfection. DAY 2: Transfection Step 1: DNA and Media Add plain DMEM media to tubes for mixing the DNA Add the Reporter gene pFR-LUC Add the Gal4-RXR-DEF and VP16-VDR-LBD Step 2: FuGENE and Media Prepare plain DMEM media in a ubes for mixing FuGENE Add FuGENE 6 Transfection Reagent Incubate Step 3: FuGENE, DNA and Media Complex Add FuGENE Media complex from step 2 to DNA Media complex from step 1 Incubate Step 4: FuGENE, DNA and Media Complex to-well plate Add FuGENE-DNA-Media complex from step 3 to each plate Incubate. […] Day 4: Luciferase Assay Read the plates after drug treatment Remove part of media from all the wells and leave remainder Add Steady-Glo Luciferase Reagent mixture/wells Incubate Count each well using a Luminescence counter, Top Count NXT by Packard
Set a delay between plates to reduce the background.

[1] = Rattus norvegicus, 48 h, 48 hr treatment, luciferase, several values separated by /
[2] = 72 h, BrdU incorporation, several values separated by /
[3] = serum ionized calcium 6 hours after last dosing
[4] = TPA/PHA stimulated human PBMCs, IL-10 in supernatant by immunoassay, several values separated by /
[5] = 48 hr treatment, luciferase, several values separated by /

Row | SMILES | pEC50 (rat osteocalcin promoter; Rattus norvegicus, comparison compounds) | pIC50 (KERtr cells; comparison compounds) | Mouse Hypercal (female DBF mice; comparison compounds) [µg/kg/day] | pIC50 (IL-10; comparison compounds, human PBMCs) | pEC50 (rat osteocalcin promoter; [1]) | pIC50 (KERtr cells; [2]) | Mouse Hypercal (female DBF mice; [3]) [µg/kg/day] | pIC50 (IL-10; [4]) | EC50 (VDR) [nM] | pEC50 (rat osteocalcin promoter; [5]) | pEC50 (RXR-VDR heterodimer)
1 | CCC(CC)(c1ccc(OCC(O)CO)c(C)c1)c1ccc(OCC(O)C(C)(C)C)c(C)c1 (centres unmarked) [BB, 3-(4-{1-Ethyl-1-[4-(2-hydroxy-3,3-dimethyl-butoxy)-3-methyl-phenyl]-propyl}-2-methyl-phenoxy)-propane-1,2-diol, reference compound] | 8.08 | 8.00 | 20 | 7.55 | – | – | – | – | – | – | –
2 | CCC(CC)(c1ccc(OCC(=O)C(C)(C)C)c(C)c1)c1cc2cc(C(=O)NCC(=O)O)ccc2o1 [Ex 7, [(2-{1-[4-(3,3-Dimethyl-2-oxo-butoxy)-3-methyl-phenyl]-1-ethylpropyl}-benzofuran-5-carbonyl)-amino]-acetic acid] | – | – | – | – | 9.40 | 8.30 | >300 | 7.62 | 412 | – | –
3 | CCC(CC)(c1ccc(OCC(=O)C(C)(C)C)c(C(C)C)c1)c1cc2cc(C(=O)O)ccc2o1 [Ex 17] | – | – | – | – | – | 7.89 | – | 7.02 | 589 | – | –
4 | CCC(CC)(c1ccc(OCC(O)C(C)(C)C)c(C)c1)c1cc2ccc(C(=O)O)cc2o1 (centres unmarked) [Ex 19, 2-{1-Ethyl-1-[4-(2-hydroxy-3,3-dimethyl-butoxy)-3-methyl-phenyl]-propyl}-benzofuran-6-carboxylic acid] | – | – | – | – | 8.85 | 8.10 | – | 7.47 | 620 | 9.05 | –
5 | CCC(CC)(c1ccc(OCC(=O)C(C)(C)C)c(C)c1)c1cc(C)c2oc(C(=O)O)cc2c1 [Ex 21, 5-{1-[4-(3,3-dimethyl-2-oxo-butoxy)-3-methyl-phenyl]-1-ethyl-propyl}-7-methyl-benzofuran-2-carboxylic acid] | – | – | – | – | 8.70 | 7.74 | >1000 | 7.10 | 462 | 9.00 | 7.30 and 8.30
6 | CCC(CC)(c1ccc(OCC(=O)C(C)(C)C)c(C)c1)c1ccc2oc(C(=O)O)cc2c1 [Ex 30, 5-{1-[4-(3,3-dimethyl-2-oxo-butoxy)-3-methyl-phenyl]-1-ethyl-propyl}-benzofuran-2-carboxylic acid] | – | – | – | – | 9.52 | 8.05 | >1000 | 7.60 | 364 | – | –
